Experimental data as given in ChEMBL document CHEMBL3407347, “Discovery of new acylaminopyridines as GSK-3 inhibitors by a structure guided in-depth exploration of chemical space around a pyrrolopyridinone core” (Bioorg Med Chem Lett, 2015).
Active and inactive are the calls of the source. The rule behind the calls is not given here.

species: Homo sapiens; test: Selectivity ratio for GSK3beta (unknown origin) to CK2A2 (unknown origin); settings: not given

SMILES | Ratio
COc1sc(-c2ccnc(NC(=O)C3CC3)c2)nc1C(N)=O | > 67
COc1nc(-c2ccnc(NC(=O)C3CC3)c2)sc1C(N)=O | 10

molecular target: Glycogen synthase kinase-3 beta (Homo sapiens, UniProt P49841); test: Inhibition of GSK3beta (unknown origin) activity by competitive binding assay; settings: not given
Sequence (P49841 whole entry): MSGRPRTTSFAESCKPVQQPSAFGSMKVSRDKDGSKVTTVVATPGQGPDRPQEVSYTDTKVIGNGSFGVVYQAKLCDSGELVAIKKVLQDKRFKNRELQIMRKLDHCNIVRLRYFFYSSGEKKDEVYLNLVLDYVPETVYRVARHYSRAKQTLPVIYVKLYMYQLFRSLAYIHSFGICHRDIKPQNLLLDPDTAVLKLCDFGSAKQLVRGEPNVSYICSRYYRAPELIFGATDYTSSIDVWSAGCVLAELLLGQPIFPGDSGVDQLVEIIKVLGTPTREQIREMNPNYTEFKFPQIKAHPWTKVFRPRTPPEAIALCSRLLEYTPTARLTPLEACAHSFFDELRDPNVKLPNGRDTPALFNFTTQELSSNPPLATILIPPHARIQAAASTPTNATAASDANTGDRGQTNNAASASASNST

SMILES | IC50 [nM]
O=C(Nc1cc(-c2ccc3cccnc3c2)ccn1)C1CC1 | 240
COc1sc(-c2ccnc(NC(=O)C3CC3)c2)nc1C(N)=O | 30
O=C(Nc1cc(-c2ccc3ccccc3c2)ccn1)C1CC1 | 610
CC(C)Oc1nc(-c2ccnc(NC(=O)C3CC3)c2)ncc1C(N)=O | 0.83
NC(=O)c1ccc(-c2ccnc(NC(=O)C3CC3)c2)nn1 | 140
Cn1nc(C(N)=O)cc1-c1ccnc(NC(=O)C2CC2)c1 | 24
O=C1NCCCc2cc(-c3ccnc(NC(=O)C4CC4)c3)ccc21 | 2.4
COc1nc(-c2ccnc(NC(=O)C3CC3)c2)sc1C(N)=O | 1.1
O=C(Nc1cc(-c2ccc3ccncc3c2)ccn1)C1CC1 | 74
O=C1CCCc2cc(-c3ccnc(NC(=O)C4CC4)c3)ccc2N1 | 730
NC(=O)c1cnc(-c2ccnc(NC(=O)C3CC3)c2)cn1 | 30
COc1cc(-c2ccnc(NC(=O)C3CC3)c2)cnc1C(N)=O | 7
COc1nc(-c2ccnc(NC(=O)C3CC3)c2)ncc1C(N)=O | 5.9
O=C1NCc2cc(-c3ccnc(NC(=O)C4CC4)c3)ccc21 | 11
O=C1NCCc2cc(-c3ccnc(NC(=O)C4CC4)c3)ccc21 | 2.4
COc1cc(-c2ccnc(NC(=O)C3CC3)c2)ncc1C(N)=O | 22
NC(=O)c1sc(-c2ccnc(NC(=O)C3CC3)c2)nc1OC1CCC1 | 0.37
CC(C)Oc1cc(-c2ccnc(NC(=O)C3CC3)c2)ncc1C(N)=O | 4.4
O=C1NCCOc2cc(-c3ccnc(NC(=O)C4CC4)c3)ccc21 | 4.7
NC(=O)c1cnc(-c2ccnc(NC(=O)C3CC3)c2)cc1OCC(F)(F)F | 6.8
CC(C)Oc1nc(-c2ccnc(NC(=O)C3CC3)c2)sc1C(N)=O | 0.45
Cc1nc(-c2ccnc(NC(=O)C3CC3)c2)sc1C(N)=O | 37
NC(=O)c1ccc(-c2ccnc(NC(=O)C3CC3)c2)cn1 | 90
NC(=O)c1sc(-c2ccnc(NC(=O)C3CC3)c2)nc1OCC1CC1 | 0.29
NC(=O)c1cnc(-c2ccnc(NC(=O)C3CC3)c2)s1 | 13
O=C(Nc1cc(-c2ccc3ncccc3c2)ccn1)C1CC1 | 7.5

tested on: Mus musculus; test: Reduction in pTau396 level in LaFerla 3xTg-C57BL6 mouse at 30 mg/kg, po by ELISA; type: functional, organism-based; set-up: dose 30 mg/kg; settings: not given

SMILES | inhibition
COc1nc(-c2ccnc(NC(=O)C3CC3)c2)sc1C(N)=O | Active
O=C1NCCc2cc(-c3ccnc(NC(=O)C4CC4)c3)ccc21 | Active

tested on: not listed separately; test: Ratio of brain to plasma in LaFerla 3xTg-C57BL6 mouse at 30 mg/kg, po; type: ADME, organism-based; set-up: dose 30 mg/kg, route oral; settings: brain and plasma, read-out: BPR

SMILES | Kp
COc1nc(-c2ccnc(NC(=O)C3CC3)c2)sc1C(N)=O | 0.26
